From patent publication US10919896B2, “Preparation and uses of pyrimidinone derivatives” (Cancer Research Technology Limited, priority 2016, dated 2021)
Structures can show the parent of a compound that is named as a salt. Where two headings read alike, the source gives them in different places.

Key:
[1] = target: T1, Cdc7/ASK (Homo sapiens, UniProt O00311); assay: Cdc7 Biochemical Assay Method 4: off-chip mobility shift assay (Carna Biosciences); set-up: purchased Carna Biosciences; host or cells: baculovirus expression system; settings: off-chip MSA, MCM2 peptide, 5 hours; read-out: Biochemical Method 4 (pIC50) (converted)
Protocol: This protocol describes a method for assaying Cdc7/ASK for activity. The assay is an off-chip mobility shift assay (MSA) run at Carna Biosciences.
1. Preparation of Test Compound Solution.
The test compound was dissolved in and diluted with dimethylsulfoxide (DMSO) to achieve 100-fold higher concentration which was specified by the sponsor. Then the solution was further 25-fold diluted with assay buffer to make the final test compound solution. Reference compounds for assay control were prepared similarly.
Cdc7/ASK: Full-length human Cdc7 [1-574(end) amino acids of accession number NP_003494.1] was co-expressed as N-terminal GST-fusion protein (92 kDa) with Dbf4(ASK) [1-674(end) amino acids of accession number NP_006707.1] using baculovirus expression system. GST-Cdc7 was purified by using glutathione sepharose chromatography.
3. Assay Reagents and Procedures
Off-chip Mobility Shift Assay (MSA)
1) The […] of ×2 kinase solution were prepared with assay buffer (20 mM HEPES, 0.01% Triton X-100, 1 mM DTT, pH 7.5) and mixed and incubated in a well of polypropylene 384 well microplate for 5 hours at room temperature. 2) […] of Termination Buffer (QuickScout Screening Assist MSA; Carna Biosciences) was added to the well. 3) The reaction mixture was applied to LabChip system (Perkin Elmer), and the product and substrate peptide peaks were separated and quantitated. 4) The kinase reaction was evaluated by the product ratio calculated from peak heights of product (P) and substrate (S) peptides (P/(P+S)).
Reaction time is 5 hours.
The readout value of reaction control (complete reaction mixture) was set as a 0% inhibition, and the readout value of background (Enzyme(−)) was set as a 100% inhibition, then the percent inhibition of each test solution was calculated.
IC50 value was calculated from concentration vs. % Inhibition curves by fitting to a four parameter logistic curve.

[2] = system: Cdc7 (pS53MCM2 levels in SW48 cells); assay: Cdc7 Cell Pharmacodynamics Assay Method 3: pS53MCM2 levels in SW48 cells, 6 hours; type: cell-based; settings: for EC50: Homo sapiens, SW48, 6 h, read-out: Biomarker Method 3 (pEC50) (converted)
Excerpt: This protocol describes a method to investigate the inhibition of Cdc7 activity by measuring pS53MCM2 levels in cells, after treatment with compounds.
• SW48 cells • RPMI 1640 (Sigma, R5886) • 10% FCS (Sera Laboratories International Ltd, EU000F Batch:108005) • 100× L-Glutamine (Invitrogen, 25030-024) • D-Glucose Solution (10%) (Sigma, G8644) • HEPES Buffer Solution (Sigma, 83264) • Sodium Pyruvate (Sigma, S8636) • PBS (Fisger, BP399-4) • Trypsin/EDTA (Invitrogen 25300-054) • 2% BSA in PBS • Cell Extraction Buffer (Invitrogen FNN0011) • Protease inhibitor cocktail (Sigma P-2714) • PMSF 0.3M stock in DMSO (Sigma P7626) • Antibody-rabbit pMCM2 Ser53 (Bethyl #A300-756A) • Antibody-goat MCM2 (Bethyl #A300-122A) • Antibody-goat Anti Rabbit IgG HRP (Perbio Science UK Ltd 31462) • SuperSignal ELISA Pico Chemiluminescent Substrate (Perbio Science UK Ltd 37070) Method • Plate 30,000 SW48 cells per well in standard TC treated 96 well plate in 100 μL complete RPMI 1640 medium. • Allow cells to settle overnight in incubator set at 37° C. and 5% CO2. • Cell treatment: prepare a 384 well plate containing 80 μl PBS/well. The PBS should be at room temperature—to be referred to as intermediate plate. Transfer 2 μL of compound from mother plate to intermediate (daughter plate) 1:40 dilution, then 5 μL intermediate to cell (daughter) plate. • Once all cells are treated place the cells back to the incubator and incubate for 6 hours. • Dilute the capture antibody (total MCM2#A300-122A) 1 in 250 in the required volume of PBS (5 mL per assay plate, plus 5 mL for dead volume) and add 50 μL to each well of a Hybond plate. Seal the plate and incubate at room temperature for a minimum of 2 hours. • Defrost aliquot of Invitrogen Cell Extraction Buffer (FNN0011) on ice and supplement with appropriate volume of both Sigma protease inhibitor cocktail (P-2714) and PMSF (final conc 1 mM from a 1 M stock in DMSO). • After the 6 hour cell treatment time, tap out the media from the assay plates and place them in the −80° C. freezer for at least 5 minutes. • Remove plates from freezer and add 20 μL of ice cold complete lysis buffer, with the multidrop. Incubate cells for 30 minutes at 4° C. • Add 80 μL per well 2% BSA. • Flick out the remaining liquid from the capture plate and transfer 80 μL from the lysis plate to the same wells in the capture/ELISA plate, using the Biomek. Cover with plate seal and incubate plates overnight at 4° C. • Wash plates with PBS, remove any residual remaining liquid and add 50 μL per well of pMCM2 Ser53 antibody (#A300-756A) diluted 1 in 100 in 2% BSA. Cover plate and incubate at room temperature for 2 hours with gentle shaking. • Wash plates with PBS, remove any residual remaining liquid and Incubate with 50 μL goat anti rabbit antibody (1 in 800 dilution in 2% BSA), for 1 hour at room temperature. • Wash plates with PBS, remove any residual remaining liquid and add 50 μL mixed SuperSignal Pico substrate. • Incubate each plate for 5 minutes at room temperature shielding the plates from direct light (with a cover plate). Read plates with the luminescent detection.

[3] = target: T1, Cdc7/ASK; assay: Cdc7 Biochemical Assay Method 2: 384 well mobility shift assay (EZ Reader II), MCM2 peptide substrate; set-up: purchased; settings: 12.5 μM ATP, read-out: Biochemical Method 2 (pIC50) (converted)
Protocol: This protocol describes a method for assaying Cdc7/ASK for activity. The assay is a 384 well mobility shift assay (MSA) run on the EZ Reader II microfluidics plate reader (Caliper LifeSciences), utilising a peptide substrate based on the MCM2 sequence. The assay technology is based on the change in mobility between the peptide substrate and the phosphorylated product. A 10 nL volume of the reaction mixture is sipped onto the microfluidic chip where the substrate and product are separated by electrophoresis and detected via laser-induced fluorescence (488 nm LED). The reaction can be monitored in real-time for kinetic experiments or as an end-point for IC50 determinations. The % conversion of substrate is calculated from peak heights of product (P) and substrate (S) peptides (% conversion=P/(P+S)*100).
• 10× Assay Buffer: 200 mM HEPES pH 8, 100 mM MgCl2, 0.1% v/v Triton X-100 and 15 mM DTT. Prepare fresh buffer from 1 M HEPES pH 8, 1 M MgCl2, 1 M DTT and 10% Triton x-100 stocks for each experiment. • Cdc7/ASK is purchased from commercial suppliers and used in the assay at a final assay concentration of 0.847 ng/μL or 9.2 nM. • MCM2 peptide is purchased from commercial suppliers and used in the assay at a final assay concentration of 2.5 μM. • ATP used in the assay at a final assay concentration of 12.5 μM. Methods • 1. Prepare intermediate (daughter) compound plate by transferring 2 μL of compound from the mother plate to 18 μL of 33.3% DMSO in a clear polypropylene plate. • 2. Dry-spot 1 μL of compound from the intermediate compound plate to empty assay plate. • 3. Add 5 μL of 1.694 ng/μL CDC7/ASK working solution to ‘test’ and ‘control’ wells or […] of 2× Assay Buffer to ‘blank’ wells. • 4. Add 4 μL 2.5 μM peptide/12.5 μM ATP working solution to all wells. • 5. Incubate at 37° C. for 1 hour then remove from the incubator and leave for a further 1 hour at room temperature. • 6. Place plate into an EZReader II to read.
Percentage inhibition values were calculated from % of substrate conversion values, using the no compound (DMSO) and no enzyme control values as 0% and 100% inhibition, respectively. IC50 determination was performed with ExcelFit software (IDBS) using curve fit 205. Z′ factors were determined for each plate tested and were all above 0.5.

[4] = target: Cdc7/Dbf4 (Homo sapiens, UniProt O00311); assay: Cdc7 Biochemical Assay Method 3: Cdc7/Dbf4 Enzyme TR-FRET Assay measuring pS40MCM2; settings: 1 μM ATP, read-out: Biochemical Method 3 (pIC50) (converted)
Procedure, shortened: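 TR-FRET read-out (terbium anti-rabbit donor, streptavidin-Alexa Fluor488 acceptor, anti-Mcm2 pS40 antibody) of peptide phosphorylation after 120 min at 25° C; reaction held 1 μM ATP, 100 nM biotin-tagged peptide substrate and 2.5 nM enzyme complex.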

[5] = system: Cdc7 (pS40MCM2 levels in HCT116 cells); assay: Cdc7 Cell Pharmacodynamics Assay Method 2A: pS40MCM2 levels in HCT116 cells, 6 hours; type: cell-based; settings: Homo sapiens, HCT-116, read-out: Biomarker Method 2A (pEC50) (converted)
Excerpt: This protocol describes a method to investigate the inhibition of Cdc7 activity by measuring pS40MCM2 levels in cells, after treatment with compounds.
• HCT116 cells (ATCC, #CCL-247) • McCoys 5A with L-glutamine (Cellgro, #10-050-CV) • 10% FCS (Cellgro, #35-010-CV) • D-PBS without CaCl2 and MgCl2 (Cellgro, #21-031-CV) • Trypsin/EDTA (Cellgro, #25-052-CL) • BSA (Calbiochem, 126593) • Cell Extraction Buffer (Invitrogen FNN0011) • Protease inhibitor cocktail (Sigma P-2714) • PMSF 0.3M stock in DMSO (Sigma P7626) • Antibody-rabbit pMCM2 Ser40 (Abcam, AB133243) • Antibody-goat MCM2 (Bethyl #A300-122A) • Antibody-goat Anti Rabbit IgG HRP (Thermo, 31462) • SuperSignal ELISA Pico Chemiluminescent Substrate (Perbio Science UK Ltd 37069) • 10×PBS (Growcells, MRGF-6236) • Triton X100 (Sigma, P-T8787) • DMSO (Fisher, D128-1) • 2-Propanol (J. T. Baker, 9095-03) Method • Seed 1×10^6 HCT116 cells into each of two 175 cm^2 flask containing 30 mL Cell Growth Media and incubate at 37° C., 5% CO2 for 3 days. • Harvest the cells from one T175 cm^2 flask and count. • Dilute with Cell Growth Media to a cell density of 2×10^5. Dispense 100 μL to each well (20,000 HCT116 cells/well) of TC treated 96-well plate(s). • Allow cells to settle overnight in incubator set at 37° C. and 5% CO2. • Cell treatment: Transfer 0.25 μL/well from the compound plate to the wells of the cell plate(s). This is a 1:400 dilution of compound in the assay. • Once all cells are treated place the cells back to the incubator and incubate for either 6 hours (Method 2A) or 18 hours (Method 2B). • Dilute the capture antibody (total MCM2#A300-122A) 1 in 250 in the required volume of PBS (5 mL per assay plate, plus 5 mL for dead volume) and add 50 μL to each well of a Hybond plate except wells A12 & B12. Seal the plate and incubate at room temperature for a minimum of 2 hours. • Defrost aliquot of Invitrogen Cell Extraction Buffer (FNN0011) on ice and supplement with appropriate volume of both Sigma protease inhibitor cocktail (P-2714) and PMSF (final conc 1 mM from a 1 M stock in DMSO). • After the 6 hour or 18 hour cell treatment time, tap out the media from the assay plates and place them in the −70° C. freezer for at least 5 minutes. • Flick out the remaining liquid in the previously prepared capture Ab plate(s) and add 200 μL 2% BSA per well. Incubate for 1 hour at room temperature. • Remove plates from freezer and add 20 μL of ice cold complete lysis buffer. Incubate cells for 30 minutes at 4° C. • Add 30 μL per well 2% BSA • At the end of the 1 hour incubation, wash the Capture/ELISA plate(s) with Wash Buffer on the BioTek plate washer. • Transfer 40 μL per well of the lysis plate(s) to the same wells in the Capture/ELISA plate. Incubate cells overnight at 4° C. • At the end of the overnight incubation, wash the ELISA plate(s) with Wash Buffer on BioTek plate washer. • Prepare Detection Antibody Buffer and dispense 50 μL to all wells of ELISA plate(s) except wells G1 & H1. Cover plate and incubate at room temperature for 2 hours with gentle shaking. • At the end of the 2 hour incubation, wash the ELISA plate(s) with Wash Buffer on the BioTek plate washer. • Prepare the Conjugated Antibody Buffer and dispense 50 μL to all wells of ELISA plate(s). • Cover the plate and incubate at room temperature for 1 hour with gentle shaking. • At the end of the 1 hour incubation, wash the ELISA plate(s) with Wash Buffer on the BioTek plate washer. • Prepare Substrate Buffer and dispense 50 μL to all wells of ELISA plate(s). • Incubate for a minimum of 10 minutes and read plates on the EnVision 2100 Multilabel Reader (Mirror: Luminescence (404) & Luminescence 700 (212); Measurement Height: 6.5 mm; Measurement Time: 0.2 s). Method 3

T1 sequence (O00311 whole entry): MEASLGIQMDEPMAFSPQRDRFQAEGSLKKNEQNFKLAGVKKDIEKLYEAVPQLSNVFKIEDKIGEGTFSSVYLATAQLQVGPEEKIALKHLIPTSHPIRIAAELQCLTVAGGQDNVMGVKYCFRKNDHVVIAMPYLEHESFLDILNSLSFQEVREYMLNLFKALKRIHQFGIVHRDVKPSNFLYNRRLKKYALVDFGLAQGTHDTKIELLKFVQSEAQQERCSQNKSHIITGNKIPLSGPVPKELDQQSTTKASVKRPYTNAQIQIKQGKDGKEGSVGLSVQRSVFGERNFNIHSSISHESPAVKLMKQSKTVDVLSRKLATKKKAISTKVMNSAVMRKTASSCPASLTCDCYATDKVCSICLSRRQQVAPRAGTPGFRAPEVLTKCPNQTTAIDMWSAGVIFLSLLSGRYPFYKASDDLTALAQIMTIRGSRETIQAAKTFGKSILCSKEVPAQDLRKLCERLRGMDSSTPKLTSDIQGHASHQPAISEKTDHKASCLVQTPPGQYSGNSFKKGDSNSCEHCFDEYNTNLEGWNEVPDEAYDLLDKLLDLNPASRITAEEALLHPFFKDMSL
T1 sequence (Q9UBU7 whole entry partner): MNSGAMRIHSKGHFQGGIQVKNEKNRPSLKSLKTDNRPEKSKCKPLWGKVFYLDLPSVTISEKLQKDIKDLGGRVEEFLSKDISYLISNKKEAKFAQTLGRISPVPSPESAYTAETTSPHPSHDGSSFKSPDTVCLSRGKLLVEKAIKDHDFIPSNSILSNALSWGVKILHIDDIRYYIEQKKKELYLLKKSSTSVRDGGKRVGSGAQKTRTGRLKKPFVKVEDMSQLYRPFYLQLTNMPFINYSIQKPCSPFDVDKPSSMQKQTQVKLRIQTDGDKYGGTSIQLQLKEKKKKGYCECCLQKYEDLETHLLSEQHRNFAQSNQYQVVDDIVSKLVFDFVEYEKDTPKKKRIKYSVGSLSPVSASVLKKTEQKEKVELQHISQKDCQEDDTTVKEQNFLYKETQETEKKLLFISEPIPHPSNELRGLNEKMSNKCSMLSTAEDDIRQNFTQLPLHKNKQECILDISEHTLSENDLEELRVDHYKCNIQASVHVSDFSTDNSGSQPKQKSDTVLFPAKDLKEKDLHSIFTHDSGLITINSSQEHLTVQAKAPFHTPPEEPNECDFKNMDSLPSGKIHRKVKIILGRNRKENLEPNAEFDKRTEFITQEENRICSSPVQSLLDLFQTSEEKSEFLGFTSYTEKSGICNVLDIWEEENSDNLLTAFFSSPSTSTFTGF
Chain of Cdc7/Dbf4 (O00311 whole entry): as the sequence (O00311 whole entry) above
Chain of Cdc7/Dbf4 (Q9UBU7 whole entry partner): as the sequence (Q9UBU7 whole entry partner) above

| IC50 [1] [nM] | Biomarker Method 3 (pEC50) [2] | Structure (SMILES) | other results |
| --- | --- | --- | --- |
| 11.5 | 5.87 | Cl.O=c1[nH]c(-c2ccnc(F)c2)nc(N2CCNCC(C(F)(F)F)C2)c1Cl (stereo not drawn) [Compound 385] |  |
| 4.27 | 6.97 | Cl.O=c1[nH]c(-c2ccnc(F)c2)nc(N2CCNCC2C(F)F)c1Cl (single isomer, unassigned) [Compound 390] |  |
| 38.9 |  | CC(F)(F)C1CNCCN1c1nc(-c2ccnc(F)c2)[nH]c(=O)c1Cl (stereo not drawn) [Compound 392] | EC50 [2]: 5.75 µM |
| 70.8 | 5.26 | Cl.O=c1[nH]c(-c2ccnc(F)c2)nc(N2CCNC(C3CC3)C2)c1Cl (single isomer, unassigned) [Compound 394] |  |

The remaining lines, values behind:

| Structure (SMILES) | IC50 [1] [nM] | Biomarker Method 3 (pEC50) [2] | other results |
| --- | --- | --- | --- |
| O=c1[nH]c(-c2ccnc(F)c2)nc(N2CCNCC(F)C2)c1Cl (single isomer, unassigned) [Compound 380, 5-chloro-4-(6-fluoro-1,4-diazepan-1-yl)-2-(2-fluoro-4-pyridyl)-1H-pyrimidin-6-one hydrochloride] | 3.98 |  | Biomarker Method 3 (pEC50) ([2]; hydrochloride): 6.70 |
| O=c1[nH]c(-c2ccncc2)nc(N2CCNCC(F)(F)C2)c1Cl [Compound 374] | 5.75 |  | EC50 [2]: 0.437 µM |
| N[C@H]1CCN(c2nc(-c3ccnc(F)c3)[nH]c(=O)c2Cl)C1 [Compound 320] |  |  | IC50 [3]: 3.72 nM; IC50 [4]: 0.794 nM; EC50 [5]: 316 nM |
